# ChEMBL document CHEMBL1142755, “A macromolecular prodrug of doxorubicin conjugated to a biodegradable cyclotriphosphazene bearing a tetrapeptide” (2005)
# Counter-ions that a name gives are not always drawn.
# Test system: L1210
# Test: In vitro cytotoxicity against Leukemia L1210 cell line
# Assay type: functional
# Conditions: Mus musculus
Compound,EC50 (read-out: ED50 (the source's name)) [nM],ED50 [nM]
COc1cccc2c1C(=O)c1c(O)c3c(c(O)c1C2=O)C[C@@](O)(C(=O)CO)C[C@@H]3O[C@H]1C[C@H](N)[C@H](O)[C@H](C)O1 [DOXORUBICIN HYDROCHLORIDE],100,–
CISPLATIN,–,1000
